Structures are written as SMILES.

The values that follow come from patent US10273226B2, “Pyrazolyl-heteroarylamides as pesticides” (Bayer Animal Health GmbH, priority 2014, dated 2019).

Format in all cases: in vivo
One assay relates to Lucilia cuprina. Nature of the assay: Lucilia cuprina test. Conditions: application rate 100 ppm; L1 larvae; after 2 days. As to the method: (§1) Solvent: dimethyl sulphoxide
To produce an appropriate active ingredient formulation, 10 mg of active ingredient are mixed with 0.5 ml of dimethyl sulphoxide, and the concentrate is diluted with water to the desired concentration.
About 20 L1 larvae of the Australian sheep blowfly (Lucilia cuprina) are transferred into a test vessel containing minced horsemeat and the active ingredient preparation of the desired concentration.
After 2 days, the kill in % is determined. 100% means that all the larvae have been killed and 0% means that none of the larvae have been killed.

In the next assay the test system is Boophilus microplus. Nature of the assay: Boophilus microplus injection test. Conditions: application rate 20 μg/animal; injection into abdomen; assessed after 7 days. As to the method:
Boophilus microplus—Injection Test
as §1
To produce an appropriate active ingredient formulation, 10 mg of active ingredient are mixed with 0.5 ml of solvent and the concentrate is diluted with solvent to the desired concentration.
1 μl of the active ingredient solution is injected into the abdomen of 5 engorged adult female cattle ticks (Boophilus microplus). The animals are transferred into dishes and kept in a climate-controlled room.
Efficacy is assessed after 7 days by laying of fertile eggs. Eggs which are not visibly fertile are stored in a climate-controlled cabinet until the larvae hatch after about 42 days. An efficacy of 100% means that none of the ticks has laid any fertile eggs; 0% means that all the eggs are fertile.

For a further assay, the system named is Spodoptera frugiperda. Nature of the assay: Spodoptera frugiperda spray test. The following applies: caterpillars, after 7 days. As to the method:
Spodoptera frugiperda—Spray Test
(§2) To produce an appropriate active ingredient formulation, 1 part by weight of active ingredient is dissolved using the specified parts by weight of solvent and made up with water containing an emulsifier concentration of 1000 ppm until the desired concentration is attained. To produce further test concentrations, the preparation is diluted with emulsifier-containing water.
Leaf discs of maize (Zea mays) are sprayed with an active ingredient formulation of the desired concentration and, after drying, populated with caterpillars of the armyworm (Spodoptera frugiperda).
After 7 days, efficacy in % is determined. 100% means that all the caterpillars have been killed; 0% means that no caterpillars have been killed.

In another assay the test system is Ctenocephalides felis. Nature of the assay: Ctenocephalides felis oral test. The following applies: application rate 100 ppm in citrated cattle blood; after 2 days. As for the experimental part: Ctenocephalides felis—Oral Test
as §1
For the purpose of producing an appropriate active ingredient formulation, 10 mg of active ingredient are mixed with 0.5 ml of dimethyl sulphoxide. Dilution with citrated cattle blood gives the desired concentration.
About 20 unfed adult cat fleas (Ctenocephalides felis) are placed into a chamber which is closed at the top and bottom with gauze. A metal cylinder whose bottom end is closed with parafilm is placed onto the chamber. The cylinder contains the blood/active ingredient preparation, which can be imbibed by the fleas through the parafilm membrane.
After 2 days, the kill in % is determined. 100% means that all of the fleas have been killed; 0% means that none of the fleas have been killed.

The test system of another assay is Tetranychus urticae. Put plainly: Tetranychus urticae spray test, OP-resistant. Conditions: application rate 100 g/ha; after 6 days. As for the experimental part: Tetranychus urticae—Spray Test, OP-Resistant
as §2
Discs of bean leaves (Phaseolus vulgaris) infested by all stages of the greenhouse red spider mite (Tetranychus urticae) are sprayed with an active ingredient formulation of the desired concentration.
After 6 days, efficacy in % is determined. 100% means that all the spider mites have been killed; 0% means that none of the spider mites have been killed.

In a further assay the test system is Rhipicephalus sanguineus. Put plainly: Rhipicephalus sanguineus in vitro contact test with adult brown dog ticks. The following applies: after 48 h, ticks dead or moribund. As to the method: Rhipicephalus sanguineus—In Vitro Contact Tests with Adult Brown Dog Ticks
For the coating of the test tubes, 9 mg of active ingredient are first dissolved in 1 ml of acetone p.a. and then diluted to the desired concentration with acetone p.a. 250 μl of the solution are distributed homogeneously on the inner walls and base of a 25 ml test tube by turning and rocking on an orbital shaker (rocking rotation at 30 rpm for 2 h). With 900 ppm active ingredient solution and internal surface 44.7 cm^2, given homogeneous distribution, an area-based dose of 5 μg/cm^2 is achieved.
After the solvent has evaporated off, the tubes are populated with 5-10 adult dog ticks (Rhipicephalus sanguineus), sealed with a perforated plastic lid and incubated in a horizontal position in the dark at room temperature and ambient humidity. After 48 h, efficacy is determined. To this end, the ticks are knocked to the floor of the tube and incubated on a hotplate at 45-50° C. for not more than 5 min. Ticks which remain motionless on the floor or move in such an uncoordinated manner that they are unable to deliberately avoid the heat by climbing upwards are considered to be dead or moribund.
An efficacy of 100% means that all the ticks were dead or moribund. 0% efficacy means that none of the ticks had been harmed.

The subject of the next assay is Phaedon cochleariae. Put plainly: Phaedon cochleariae spray test. Conditions: larvae, after 7 days. As for the experimental part: Phaedon cochleariae—Spray Test
as §2
Discs of Chinese cabbage leaves (Brassica pekinensis) are sprayed with an active ingredient formulation of the desired concentration and, after drying, populated with larvae of the mustard beetle (Phaedon cochleariae).
After 7 days, efficacy in % is determined. 100% means that all the beetle larvae have been killed; 0% means that no beetle larvae have been killed.

[1] abbreviates: application rate 5 μg/cm^2 (500 g/ha).

With `CCC(C)C(=O)Nc1cc(-c2cnn(-c3c(C(F)(F)F)c(C(F)(F)C(F)(F)F)nn3C)c2)ccc1F` (racemic) [Example 1-052], the “efficacy (kill in %)” value in the assay with Lucilia cuprina was found to be 100%; in the assay on Ctenocephalides felis, 90%. Also, the “efficacy (laying of fertile eggs)” value in the assay on Boophilus microplus is recorded as 100%. For the same compound, the efficacy in the assay with Spodoptera frugiperda (application rate 100 g/ha) and in the assay with Tetranychus urticae was 100% throughout.

In the case of `CC(C(=O)Nc1cc(-c2cnn(-c3c(C(F)(F)F)c(C(F)(F)C(F)(F)F)nn3C)c2)ccc1F)c1ccccc1` (racemic) [Example 1-108], the “efficacy (laying of fertile eggs)” value with Boophilus microplus is given as 100%. In the assay with Tetranychus urticae, this compound returned an efficacy of 100%.

Turning to `Cn1nc(C(F)(F)C(F)(F)F)c(C(F)(F)F)c1-n1cc(-c2cccc(NC(=O)c3cc(Cl)nc(Cl)c3)c2)cn1` [Example 1-011], the “efficacy (kill in %)” value with Lucilia cuprina and in the assay on Ctenocephalides felis was 100% each time. In the assay on Boophilus microplus, the “efficacy (laying of fertile eggs)” value stood at 100%. The efficacy turned out to be 80% in the assay with Rhipicephalus sanguineus (setting [1]), 90% in the assay with Tetranychus urticae and 100% with Phaedon cochleariae (application rate 100 g/ha).

Turning to `Cn1nc(C(F)(F)C(F)(F)F)c(C(F)(F)F)c1-n1cc(-c2cccc(NC(=O)c3c(F)cccc3F)c2)cn1` [Example 1-015], the “efficacy (kill in %)” value in the assay with Lucilia cuprina and in the assay on Ctenocephalides felis was 100% throughout. Further, the “efficacy (laying of fertile eggs)” value in the assay on Boophilus microplus is on record as 100%. Also, the efficacy in the assay with Spodoptera frugiperda (application rate 100 g/ha) is recorded as 100%; in the assay on Rhipicephalus sanguineus (setting [1]), 80%; in the assay with Tetranychus urticae, 100%; in the assay with Phaedon cochleariae (application rate 100 g/ha), 100%.

As to `Cn1nc(C(F)(F)C(F)(F)F)c(C(F)(F)F)c1-n1cc(-c2cccc(NC(=O)c3sccc3Cl)c2)cn1` [Example 1-018], the “efficacy (laying of fertile eggs)” value with Boophilus microplus is listed as 100%. The efficacy in the assay with Spodoptera frugiperda (application rate 500 g/ha) was 100%; in the assay with Tetranychus urticae, 90%; in the assay with Phaedon cochleariae (application rate 500 g/ha), 100%.

As for `Cn1nc(C(F)(F)C(F)(F)F)c(C(F)(F)F)c1-n1cc(-c2cccc(NC(=O)C3(C#N)CC3)c2)cn1` [Example 1-029], the “efficacy (kill in %)” value with Lucilia cuprina and with Ctenocephalides felis was 100% in each case. The “efficacy (laying of fertile eggs)” value in the assay with Boophilus microplus is recorded as 100%. Besides, the efficacy in the assay on Spodoptera frugiperda (application rate 500 g/ha) worked out at 100%; with Rhipicephalus sanguineus (setting [1]) it was 100%; with Tetranychus urticae, 100%; in the assay on Phaedon cochleariae (application rate 500 g/ha), 83%.

Regarding `Cc1cc(C(=O)Nc2cc(-c3cnn(-c4c(C(F)(F)F)c(C(F)(F)C(F)(F)F)nn4C)c3)ccc2F)cc(Cl)n1` [Example 1-043], the “efficacy (kill in %)” value in the assay with Lucilia cuprina and in the assay on Ctenocephalides felis was 100% each time. In addition, the “efficacy (laying of fertile eggs)” value in the assay with Boophilus microplus was 100%. Also, the efficacy is reported as 100% in the assay on Spodoptera frugiperda (application rate 100 g/ha), 80% with Rhipicephalus sanguineus (application rate 1 μg/cm^2 (100 g/ha)), 100% with Tetranychus urticae and 100% with Phaedon cochleariae (application rate 100 g/ha).

For the compound `Cn1nc(C(F)(F)C(F)(F)F)c(C(F)(F)F)c1-n1cc(-c2ccc(F)c(NC(=O)C(C)(C)CF)c2)cn1` [Example 1-046], the “efficacy (kill in %)” value in the assay on Lucilia cuprina amounted to 100%. Besides, in the assay with Boophilus microplus, the “efficacy (laying of fertile eggs)” value is 100%. The compound further showed an efficacy with Tetranychus urticae of 100%.

Take `Cn1nc(C(F)(F)C(F)(F)F)c(C(F)(F)F)c1-n1cc(-c2ccc(F)c(NC(=O)C3(C)CCCCC3)c2)cn1` [Example 1-053]: the efficacy in the assay on Tetranychus urticae amounted to 100%.

`CN(C)c1ccc(C(=O)Nc2cc(-c3cnn(-c4c(C(F)(F)F)c(C(F)(F)C(F)(F)F)nn4C)c3)ccc2F)cc1` [Example 1-054]: the “efficacy (kill in %)” value in the assay with Lucilia cuprina was determined as 100%. Moreover, in the assay with Boophilus microplus, the “efficacy (laying of fertile eggs)” value is reported as 100%. In addition, the efficacy with Spodoptera frugiperda (application rate 100 g/ha), with Rhipicephalus sanguineus (setting [1]), with Tetranychus urticae and in the assay with Phaedon cochleariae (application rate 100 g/ha) was 100% each time.

With `CC(C)C(C)(C)C(=O)Nc1cc(-c2cnn(-c3c(C(F)(F)F)c(C(F)(F)C(F)(F)F)nn3C)c2)ccc1F` [Example 1-065], the “efficacy (kill in %)” value in the assay on Lucilia cuprina stood at 80%; in the assay on Ctenocephalides felis, 90%. Also, in the assay with Boophilus microplus, the “efficacy (laying of fertile eggs)” value is recorded as 100%. Besides, the efficacy with Tetranychus urticae came to 100%.

Turning to `Cc1occc1C(=O)Nc1cc(-c2cnn(-c3c(C(F)(F)F)c(C(F)(F)C(F)(F)F)nn3C)c2)ccc1F` [Example 1-067], the “efficacy (kill in %)” value in the assay on Lucilia cuprina and in the assay on Ctenocephalides felis was 100% each time. Moreover, in the assay on Boophilus microplus, the “efficacy (laying of fertile eggs)” value is listed as 100%. Moreover, the efficacy in the assay on Spodoptera frugiperda (application rate 100 g/ha), in the assay with Tetranychus urticae and in the assay with Phaedon cochleariae (application rate 100 g/ha) was 100% in each case.

Take `Cn1nc(C(F)(F)C(F)(F)F)c(C(F)(F)F)c1-n1cc(-c2ccc(F)c(NC(=O)C(C)(C)C)c2)cn1` [Example 1-078]: the “efficacy (kill in %)” value is 100% in the assay with Lucilia cuprina and 80% with Ctenocephalides felis. For the same compound, the “efficacy (laying of fertile eggs)” value in the assay with Boophilus microplus came to 100%. Besides, the efficacy in the assay on Spodoptera frugiperda (application rate 100 g/ha), in the assay on Rhipicephalus sanguineus (setting [1]) and with Tetranychus urticae was 100% each time.

Regarding `Cc1ccc(C(=O)Nc2cc(-c3cnn(-c4c(C(F)(F)F)c(C(F)(F)C(F)(F)F)nn4C)c3)ccc2F)cc1F` [Example 1-092], the “efficacy (kill in %)” value in the assay on Lucilia cuprina and in the assay with Ctenocephalides felis was 100% in each case. Besides, in the assay with Boophilus microplus, the “efficacy (laying of fertile eggs)” value was found to be 100%. In addition, the efficacy with Spodoptera frugiperda (application rate 100 g/ha), in the assay with Rhipicephalus sanguineus (setting [1]), in the assay with Tetranychus urticae and in the assay on Phaedon cochleariae (application rate 100 g/ha) was 100% each time.

`Cn1nc(C(F)(F)C(F)(F)F)c(C(F)(F)F)c1-n1cc(-c2ccc(F)c(NC(=O)c3ccc4c(c3)OCO4)c2)cn1` [Example 1-093]: the “efficacy (kill in %)” value in the assay on Lucilia cuprina and with Ctenocephalides felis was 100% in each case. Also, the “efficacy (laying of fertile eggs)” value in the assay on Boophilus microplus came to 100%. The efficacy in the assay on Spodoptera frugiperda (application rate 100 g/ha), in the assay with Rhipicephalus sanguineus (setting [1]), in the assay with Tetranychus urticae and with Phaedon cochleariae (application rate 100 g/ha) was 100% each time.

Consider `Cn1nc(C(F)(F)C(F)(F)F)c(C(F)(F)F)c1-n1cc(-c2ccc(F)c(NC(=O)Cc3cccc(C(F)(F)F)c3)c2)cn1` [Example 1-116], for which the “efficacy (kill in %)” value in the assay with Lucilia cuprina and with Ctenocephalides felis was 100% in each case. Further, in the assay on Boophilus microplus, the “efficacy (laying of fertile eggs)” value was 100%. The values for the efficacy in the assay on Spodoptera frugiperda (application rate 100 g/ha) and with Phaedon cochleariae (application rate 100 g/ha) were 83% and 100%, respectively.

Consider `Cn1nc(C(F)(F)C(F)(F)F)c(C(F)(F)F)c1-n1cc(-c2ccc(F)c(NC(=O)Cc3cccc(F)c3)c2)cn1` [Example 1-121], for which the “efficacy (kill in %)” value in the assay on Lucilia cuprina and in the assay on Ctenocephalides felis was 100% each time. Further, in the assay with Boophilus microplus, the “efficacy (laying of fertile eggs)” value is 100%. The efficacy in the assay with Spodoptera frugiperda (application rate 100 g/ha), in the assay with Rhipicephalus sanguineus (setting [1]), with Tetranychus urticae and in the assay on Phaedon cochleariae (application rate 100 g/ha) was 100% each time.
